Results as given in patent US20240366632A1, “METHODS FOR THE TREATMENT OF OCULAR ROSACEA” (INSTITUT NATIONAL DE LA SANTÉ ET DE LA RECHERCHE MÉDICALE, priority 2021, published 2024).

What was measured:
[1] = tested on: corneal neovascularization induced by limbal deficiency; experiment: rat model of CN induced by de-epithelialization and limbal resection; assay type: in vivo; details: for corneal edema / corneal neovascularization / corneal re-epithelialization / corneal thickness: rat, limbal deficiency
Source text: FIG. 1. Corneal de-epthelialization and limbal resection model treatment schemes.
Corneal neovascularization (CN) is a severe vision-threatening complication of OR.

[2] = tested on: GR/MR balance; experiment: GR and MR expression in the cornea/limbus of rats with limbal deficiency; assay type: in vivo, rat
Source text: FIG. 4. Spironolactone up-regulates GR and the GR/MR balance in favor of GR pathway activation. The corneal de-epithelialization and limbal deficiency model induces a down regulation of GR genes at day 3 and 7, and is restored at day 14 when the cornea is healed. […] Spironolactone normalizes the GR/MR balance, favoring GR pathway activation.
Thus, spironolactone normalizes the GR/MR balance, favoring GR pathway activation.

[3] = tested on: genes regulated in the cornea and limbus; experiment: full transcriptomic regulation in the cornea and limbus; assay type: in vivo, rat; details: cornea and limbus at 3 and 7 days
Source text: A full transcriptomic regulation induced in the cornea and limbus at 3 and 7 days after spironolactone systemic injection alone or with TA has been realized.

Row | Compound | corneal edema [1] | corneal neovascularization [1] | corneal re-epithelialization [1] | corneal thickness [1] | infiltration of ED1 positive inflammatory cells in corneal lesions ([1]; corneal sections at day 3) | infiltration of IBA1-positive macrophages in corneal lesions ([1]; corneal sections at day 3) | corneal re-epithelialization (corneal wound) delayed by the TA injection ([1]; spironolactone given with TA injection) | GR expression in the cornea ([2]; day 3 and 7) | MR expression ([2]; rat, in vivo) | genes up or down regulated [3] [genes]
1 | COC(=O)[C@@H]1CC2=CC(=O)CC[C@]2(C)[C@@]23O[C@@H]2C[C@@]2(C)[C@@H](CC[C@@]24CCC(=O)O4)[C@H]13 [eplerenone, Pregn-4-ene-7,21-dicarboxylic acid, 9,11-epoxy-17-hydroxy-3-oxo-,γ-lactone, methyl ester, (7α, 11α, 17β)] | decrease | inhibited | improved | decrease |  |  |  |  |  | 
2 | CC(=O)S[C@@H]1CC2=CC(=O)CC[C@]2(C)[C@H]2CC[C@@]3(C)[C@@H](CC[C@@]34CCC(=O)O4)[C@H]12 [spironolactone, 17-hydroxy-7α-mercapto-3-oxo-17α-pregn-4-ene-21-carboxylic acid γ-lactone acetate] | decrease | inhibited | improved | decrease | reduced infiltration | reduced infiltration | improved | up regulates and normalizes | does not influence | 75
